Assay results as given in ChEMBL document CHEMBL4002623, “Synthesis and in vitro activity of dicationic indolyl diphenyl ethers as novel potent antibiotic agents against drug-resistant bacteria” (Bioorg Med Chem Lett, 2017).
Values after ≈ are worked out from the molar mass of the structure shown.

Legend:
Staphylococcus aureus [1] = experiment: Antibacterial activity against methicillin-sensitive Staphylococcus aureus ATCC 29213 by agar dilution method; assay type: functional
Staphylococcus aureus [2] = experiment: Antibacterial activity against methicillin-resistant Staphylococcus aureus 09-13 by agar dilution method; assay type: functional
[3] = test system: Staphylococcus epidermidis; experiment: Antibacterial activity against methicillin-sensitive Staphylococcus epidermidis ATCC 12228 by agar dilution method; assay type: functional
[4] = test system: Staphylococcus epidermidis; experiment: Antibacterial activity against methicillin-resistant Staphylococcus epidermidis 09-3 by agar dilution method; assay type: functional
Enterococcus faecalis [5] = experiment: Antibacterial activity against vancomycin-sensitive Enterococcus faecalis ATCC 29212 by agar dilution method; assay type: functional
Enterococcus faecalis [6] = experiment: Antibacterial activity against vancomycin-resistant Enterococcus faecalis 09-9 by agar dilution method; assay type: functional
Enterococcus faecium [7] = experiment: Antibacterial activity against vancomycin-resistant Enterococcus faecium ATCC 700221 by agar dilution method; assay type: functional
Escherichia coli [8] = experiment: Antibacterial activity against extended-spectrum beta-lactamase-negative Escherichia coli ATCC 25922 by agar dilution method; assay type: functional
Escherichia coli [9] = experiment: Antibacterial activity against extended-spectrum beta-lactamase-positive Escherichia coli 09-1 by agar dilution method; assay type: functional
Klebsiella pneumoniae [10] = experiment: Antibacterial activity against extended-spectrum beta-lactamase-negative Klebsiella pneumoniae 7 by agar dilution method; assay type: functional
Klebsiella pneumoniae [11] = experiment: Antibacterial activity against extended-spectrum beta-lactamase-positive Klebsiella pneumoniae 09-25 by agar dilution method; assay type: functional
Klebsiella pneumoniae [12] = experiment: Antibacterial activity against Klebsiella pneumoniae ATCC BAA-2146 expressing NDM-1 by agar dilution method; assay type: functional
[13] = Cytotoxicity against HEK293T cells after 48 hrs by MTS assay; assay type: cell-based, HEK-293T; conditions: human
Enterococcus faecium [14] = experiment: Antibacterial activity against vancomycin-sensitive Enterococcus faecium 09-10 by agar dilution method; assay type: functional
Staphylococcus aureus [15] = experiment: Antibacterial activity against methicillin-resistant Staphylococcus aureus ATCC 33591 by agar dilution method; assay type: functional
Staphylococcus aureus [16] = experiment: Antibacterial activity against methicillin-sensitive Staphylococcus aureus 15 by agar dilution method; assay type: functional
Staphylococcus aureus [17] = experiment: Antibacterial activity against methicillin-sensitive Staphylococcus aureus 09-6 by agar dilution method; assay type: functional
[18] = test system: Staphylococcus epidermidis; experiment: Antibacterial activity against methicillin-sensitive Staphylococcus epidermidis 09-9 by agar dilution method; assay type: functional
Enterococcus faecalis [19] = experiment: Antibacterial activity against vancomycin-resistant Enterococcus faecalis ATCC 51299 by agar dilution method; assay type: functional
Enterococcus faecalis [20] = experiment: Antibacterial activity against vancomycin-sensitive Enterococcus faecalis 09-8 by agar dilution method; assay type: functional
Enterococcus faecium [21] = experiment: Antibacterial activity against vancomycin-resistant Enterococcus faecium 05-8 by agar dilution method; assay type: functional
Escherichia coli [22] = experiment: Antibacterial activity against extended-spectrum beta-lactamase-negative Escherichia coli 1515 by agar dilution method; assay type: functional
Escherichia coli [23] = experiment: Antibacterial activity against extended-spectrum beta-lactamase-negative Escherichia coli 09-20 by agar dilution method; assay type: functional
Klebsiella pneumoniae [24] = experiment: Antibacterial activity against extended-spectrum beta-lactamase-positive Klebsiella pneumoniae ATCC 700603 by agar dilution method; assay type: functional
Klebsiella pneumoniae [25] = experiment: Antibacterial activity against extended-spectrum beta-lactamase-negative Klebsiella pneumoniae 09-8 by agar dilution method; assay type: functional
Pseudomonas aeruginosa [26] = experiment: Antibacterial activity against Pseudomonas aeruginosa ATCC 27853 by agar dilution method; assay type: functional
Pseudomonas aeruginosa [27] = experiment: Antibacterial activity against Pseudomonas aeruginosa PAO1 by agar dilution method; assay type: functional
Pseudomonas aeruginosa [28] = experiment: Antibacterial activity against Pseudomonas aeruginosa 09-14 by agar dilution method; assay type: functional
[29] = test system: Acinetobacter calcoaceticus; experiment: Antibacterial activity against Acinetobacter calcoaceticus ATCC 19606 by agar dilution method; assay type: functional
Enterobacter cloacae = experiment: Antibacterial activity against Enterobacter cloacae 45301 by agar dilution method; assay type: functional
Klebsiella aerogenes = experiment: Antibacterial activity against Enterobacter aerogenes 45102 by agar dilution method; assay type: functional
Serratia marcescens = experiment: Antibacterial activity against Serratia marcescens 41002 by agar dilution method; assay type: functional
Morganella morganii = experiment: Antibacterial activity against Morganella morganii ATCC 25830 by agar dilution method; assay type: functional
Providencia rettgeri = experiment: Antibacterial activity against Providencia rettgeri ATCC 31052 by agar dilution method; assay type: functional
Proteus vulgaris = experiment: Antibacterial activity against Proteus vulgaris ATCC 29905 by agar dilution method; assay type: functional
Proteus mirabilis = experiment: Antibacterial activity against Proteus mirabilis 09-1 by agar dilution method; assay type: functional
Salmonella typhi = experiment: Antibacterial activity against Salmonella typhi H901 by agar dilution method; assay type: functional, Salmonella enterica subsp. enterica serovar Typhi; conditions: Salmonella enterica
Citrobacter freundii = experiment: Antibacterial activity against Citrobacter freundii ATCC 43864 by agar dilution method; assay type: functional
Klebsiella pneumoniae [30] = experiment: Potency index, ratio of levofloxacin MIC to test compound MIC for Klebsiella pneumoniae ATCC BAA-2146 expressing NDM-1; assay type: functional

Compound	MIC (Staphylococcus aureus [1]) [µg/mL]	MIC (Staphylococcus aureus [2]) [µg/mL]	MIC [3] [µg/mL]	MIC [4] [µg/mL]	MIC (Enterococcus faecalis [5]) [µg/mL]	MIC (Enterococcus faecalis [6]) [µg/mL]	MIC (Enterococcus faecium [7]) [µg/mL]	MIC (Escherichia coli [8]) [µg/mL]	MIC (Escherichia coli [9]) [µg/mL]	MIC (Klebsiella pneumoniae [10]) [µg/mL]	MIC (Klebsiella pneumoniae [11]) [µg/mL]	MIC (Klebsiella pneumoniae [12]) [µg/mL]	CC50 at 48 h [13] [µg/mL]	MIC (Enterococcus faecium [14]) [µg/mL]	MIC (Staphylococcus aureus [15]) [µg/mL]	MIC (Staphylococcus aureus [16]) [µg/mL]	MIC (Staphylococcus aureus [17]) [µg/mL]	MIC [18] [µg/mL]	MIC (Enterococcus faecalis [19]) [µg/mL]	MIC (Enterococcus faecalis [20]) [µg/mL]	further results
CC1CCN(C(=N)c2ccc3cc(-c4ccc(Oc5ccc(-c6cc7ccc(C(=N)N8CCC(C)CC8)cc7[nH]6)cc5)cc4)[nH]c3c2)CC1	16 (≈ 24.7 µM)	16 (≈ 24.7 µM)	4 (≈ 6.16 µM)	8 (≈ 12.3 µM)	64 (≈ 98.6 µM)	128 (≈ 197 µM)	16 (≈ 24.7 µM)	> 128	> 128	> 128	> 128	> 128	3.2 (≈ 4.93 µM)	128 (≈ 197 µM)	16 (≈ 24.7 µM)	16 (≈ 24.7 µM)	16 (≈ 24.7 µM)	8 (≈ 12.3 µM)	128 (≈ 197 µM)	128 (≈ 197 µM)	MIC (Enterococcus faecium [21]): 128 µg/mL (≈ 197 µM); MIC (Escherichia coli [22]): > 128 µg/mL; MIC (Escherichia coli [23]): > 128 µg/mL; MIC (Klebsiella pneumoniae [24]): > 128 µg/mL; MIC (Klebsiella pneumoniae [25]): > 128 µg/mL; MIC (Pseudomonas aeruginosa [26]): > 128 µg/mL; MIC (Pseudomonas aeruginosa [27]): > 128 µg/mL; MIC (Pseudomonas aeruginosa [28]): > 128 µg/mL; MIC [29]: > 128 µg/mL; MIC (Enterobacter cloacae): > 128 µg/mL; MIC (Klebsiella aerogenes): > 128 µg/mL; MIC (Serratia marcescens): > 128 µg/mL; MIC (Morganella morganii): > 128 µg/mL; MIC (Providencia rettgeri): > 128 µg/mL; MIC (Proteus vulgaris): > 128 µg/mL; MIC (Proteus mirabilis): > 128 µg/mL; MIC (Salmonella typhi): > 128 µg/mL; MIC (Citrobacter freundii): > 128 µg/mL
N=C(c1ccc2cc(-c3ccc(Oc4ccc(-c5cc6ccc(C(=N)N7CCOCC7)cc6[nH]5)cc4)cc3)[nH]c2c1)N1CCOCC1	2 (≈ 3.2 µM)	2 (≈ 3.2 µM)	2 (≈ 3.2 µM)	2 (≈ 3.2 µM)	8 (≈ 12.8 µM)	16 (≈ 25.6 µM)	2 (≈ 3.2 µM)	32 (≈ 51.2 µM)	128 (≈ 205 µM)	> 128	> 128	> 128	4.9 (≈ 7.84 µM)	4 (≈ 6.4 µM)	2 (≈ 3.2 µM)	1 (≈ 1.6 µM)	2 (≈ 3.2 µM)	2 (≈ 3.2 µM)	4 (≈ 6.4 µM)	8 (≈ 12.8 µM)	MIC (Enterococcus faecium [21]): 8 µg/mL (≈ 12.8 µM); MIC (Escherichia coli [22]): 128 µg/mL (≈ 205 µM); MIC (Escherichia coli [23]): 64 µg/mL (≈ 102 µM); MIC (Klebsiella pneumoniae [24]): > 128 µg/mL; MIC (Klebsiella pneumoniae [25]): > 128 µg/mL; MIC (Pseudomonas aeruginosa [26]): > 128 µg/mL; MIC (Pseudomonas aeruginosa [27]): > 128 µg/mL; MIC (Pseudomonas aeruginosa [28]): > 128 µg/mL; MIC [29]: > 128 µg/mL; MIC (Enterobacter cloacae): > 128 µg/mL; MIC (Klebsiella aerogenes): > 128 µg/mL; MIC (Serratia marcescens): > 128 µg/mL; MIC (Morganella morganii): 16 µg/mL (≈ 25.6 µM); MIC (Providencia rettgeri): > 128 µg/mL; MIC (Proteus vulgaris): > 128 µg/mL; MIC (Proteus mirabilis): > 128 µg/mL; MIC (Salmonella typhi): 64 µg/mL (≈ 102 µM); MIC (Citrobacter freundii): > 128 µg/mL
CN(C)C(=N)c1ccc2cc(-c3ccc(Oc4ccc(-c5cc6ccc(C(=N)N(C)C)cc6[nH]5)cc4)cc3)[nH]c2c1	0.25 (≈ 0.462 µM)	0.25 (≈ 0.462 µM)	0.125 (≈ 0.231 µM)	0.25 (≈ 0.462 µM)	0.5 (≈ 0.925 µM)	2 (≈ 3.7 µM)	2 (≈ 3.7 µM)	4 (≈ 7.4 µM)	8 (≈ 14.8 µM)	8 (≈ 14.8 µM)	8 (≈ 14.8 µM)	8 (≈ 14.8 µM)	21.6 (≈ 40 µM)	2 (≈ 3.7 µM)	0.25 (≈ 0.462 µM)	0.25 (≈ 0.462 µM)	0.25 (≈ 0.462 µM)	0.25 (≈ 0.462 µM)	1 (≈ 1.85 µM)	2 (≈ 3.7 µM)	MIC (Enterococcus faecium [21]): 2 µg/mL (≈ 3.7 µM); MIC (Escherichia coli [22]): 4 µg/mL (≈ 7.4 µM); MIC (Escherichia coli [23]): 8 µg/mL (≈ 14.8 µM); MIC (Klebsiella pneumoniae [24]): 8 µg/mL (≈ 14.8 µM); MIC (Klebsiella pneumoniae [25]): 8 µg/mL (≈ 14.8 µM); MIC (Pseudomonas aeruginosa [26]): 128 µg/mL (≈ 237 µM); MIC (Pseudomonas aeruginosa [27]): > 128 µg/mL; MIC (Pseudomonas aeruginosa [28]): > 128 µg/mL; MIC [29]: > 128 µg/mL; MIC (Enterobacter cloacae): 64 µg/mL (≈ 118 µM); MIC (Klebsiella aerogenes): 8 µg/mL (≈ 14.8 µM); MIC (Serratia marcescens): 32 µg/mL (≈ 59.2 µM); MIC (Morganella morganii): > 128 µg/mL; MIC (Providencia rettgeri): 8 µg/mL (≈ 14.8 µM); MIC (Proteus vulgaris): 8 µg/mL (≈ 14.8 µM); MIC (Proteus mirabilis): 32 µg/mL (≈ 59.2 µM); MIC (Salmonella typhi): 16 µg/mL (≈ 29.6 µM); MIC (Citrobacter freundii): 8 µg/mL (≈ 14.8 µM); Ratio (Klebsiella pneumoniae [30]): >16
